This is an account of results in ChEMBL document CHEMBL1141872 (Bioorg Med Chem Lett, 2005).

Usually IC50 stands for the concentration at which inhibition is half-maximal. What is called inhibition in vivo is the change of the read-out against control, counted positive when it falls. As a reminder, the Tmax is the time from dosing to the highest level. The bioavailability is dose-corrected exposure relative to a reference, in per cent.

The target of data set [1] is 3',5'-cyclic-AMP phosphodiesterase 4A (Homo sapiens, UniProt P27815). The data set is described as follows: Inhibitory activity against PDE4A.
3',5'-cyclic-AMP phosphodiesterase 4A, sequence (P27815 whole entry): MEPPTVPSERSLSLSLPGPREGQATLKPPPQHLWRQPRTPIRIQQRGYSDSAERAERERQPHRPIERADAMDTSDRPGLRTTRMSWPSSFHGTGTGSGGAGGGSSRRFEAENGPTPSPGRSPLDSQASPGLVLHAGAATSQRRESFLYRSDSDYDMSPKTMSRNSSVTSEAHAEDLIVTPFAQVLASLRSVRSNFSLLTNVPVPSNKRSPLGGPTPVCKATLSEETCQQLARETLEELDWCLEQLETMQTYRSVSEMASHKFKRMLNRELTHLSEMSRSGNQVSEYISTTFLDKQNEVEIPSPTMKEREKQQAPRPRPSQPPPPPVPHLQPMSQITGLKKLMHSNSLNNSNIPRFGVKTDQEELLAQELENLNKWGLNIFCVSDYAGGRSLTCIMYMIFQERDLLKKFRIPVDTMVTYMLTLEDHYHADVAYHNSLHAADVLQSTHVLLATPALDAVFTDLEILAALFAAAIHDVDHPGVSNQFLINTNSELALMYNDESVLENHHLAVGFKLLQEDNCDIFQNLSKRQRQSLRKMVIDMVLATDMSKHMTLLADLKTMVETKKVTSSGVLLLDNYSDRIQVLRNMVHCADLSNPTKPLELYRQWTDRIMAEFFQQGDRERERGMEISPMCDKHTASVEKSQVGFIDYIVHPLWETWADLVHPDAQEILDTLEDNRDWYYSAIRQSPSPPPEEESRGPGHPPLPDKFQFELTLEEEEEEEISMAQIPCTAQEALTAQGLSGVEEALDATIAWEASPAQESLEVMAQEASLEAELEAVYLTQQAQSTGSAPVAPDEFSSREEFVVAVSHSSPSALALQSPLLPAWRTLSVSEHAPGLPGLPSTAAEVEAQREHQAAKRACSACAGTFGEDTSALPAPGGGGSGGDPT
Data set [2] deals with 3',5'-cyclic-AMP phosphodiesterase 4D (Homo sapiens, UniProt Q08499). As to the kind of experiment: Inhibitory activity against PDE4D.
3',5'-cyclic-AMP phosphodiesterase 4D, sequence (Q08499 whole entry): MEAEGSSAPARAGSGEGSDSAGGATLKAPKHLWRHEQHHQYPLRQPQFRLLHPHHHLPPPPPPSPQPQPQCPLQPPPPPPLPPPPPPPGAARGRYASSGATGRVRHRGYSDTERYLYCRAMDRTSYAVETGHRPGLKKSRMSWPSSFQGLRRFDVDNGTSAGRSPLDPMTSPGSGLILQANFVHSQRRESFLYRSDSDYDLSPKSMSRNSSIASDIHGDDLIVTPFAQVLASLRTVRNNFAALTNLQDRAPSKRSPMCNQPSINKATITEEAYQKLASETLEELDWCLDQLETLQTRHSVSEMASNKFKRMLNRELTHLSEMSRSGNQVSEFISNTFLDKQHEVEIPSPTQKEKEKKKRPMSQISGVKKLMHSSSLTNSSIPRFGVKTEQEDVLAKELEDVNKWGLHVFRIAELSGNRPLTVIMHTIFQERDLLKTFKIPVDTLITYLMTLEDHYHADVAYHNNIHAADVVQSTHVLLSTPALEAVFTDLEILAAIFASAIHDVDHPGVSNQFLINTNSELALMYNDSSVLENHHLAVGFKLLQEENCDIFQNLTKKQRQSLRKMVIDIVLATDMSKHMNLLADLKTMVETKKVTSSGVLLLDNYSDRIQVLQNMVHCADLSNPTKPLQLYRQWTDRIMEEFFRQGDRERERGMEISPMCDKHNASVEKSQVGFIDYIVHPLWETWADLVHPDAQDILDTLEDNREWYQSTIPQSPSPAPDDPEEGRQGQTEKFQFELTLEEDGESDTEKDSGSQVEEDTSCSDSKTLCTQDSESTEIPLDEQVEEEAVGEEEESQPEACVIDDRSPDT
Data set [3] addresses 3',5'-cyclic-AMP phosphodiesterase 4B (Homo sapiens, UniProt Q07343). As to the kind of experiment: Inhibitory activity against PDE4B.
The target in data set [4] is 3',5'-cyclic-AMP phosphodiesterase 4C (Homo sapiens, UniProt Q08493). The data set is described as follows: Inhibitory activity against PDE4C.
3',5'-cyclic-AMP phosphodiesterase 4C, sequence (Q08493 whole entry): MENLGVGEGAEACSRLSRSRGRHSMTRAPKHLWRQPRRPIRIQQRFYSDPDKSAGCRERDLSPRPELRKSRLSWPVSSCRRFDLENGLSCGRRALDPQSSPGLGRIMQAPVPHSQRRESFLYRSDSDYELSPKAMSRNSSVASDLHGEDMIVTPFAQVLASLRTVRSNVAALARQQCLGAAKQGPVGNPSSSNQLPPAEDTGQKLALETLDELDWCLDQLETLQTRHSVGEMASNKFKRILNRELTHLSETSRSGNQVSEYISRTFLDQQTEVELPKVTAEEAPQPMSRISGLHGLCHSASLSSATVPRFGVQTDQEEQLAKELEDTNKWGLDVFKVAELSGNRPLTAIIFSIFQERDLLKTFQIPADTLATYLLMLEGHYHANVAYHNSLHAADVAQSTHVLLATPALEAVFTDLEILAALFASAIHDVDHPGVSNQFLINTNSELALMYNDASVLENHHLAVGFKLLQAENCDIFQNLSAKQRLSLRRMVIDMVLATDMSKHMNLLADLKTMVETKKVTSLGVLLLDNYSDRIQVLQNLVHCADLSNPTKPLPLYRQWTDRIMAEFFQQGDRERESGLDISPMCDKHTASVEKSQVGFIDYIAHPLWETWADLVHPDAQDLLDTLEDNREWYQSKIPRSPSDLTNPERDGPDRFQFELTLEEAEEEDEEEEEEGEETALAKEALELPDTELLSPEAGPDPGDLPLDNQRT
The target of data set [5] is T1, Phosphodiesterase 4 (Homo sapiens, UniProt P27815+Q08499+Q07343+Q08493). The data set is described as follows: Inhibition of LPS-induced TNFalpha production in human whole blood. It counts as functional, tissue-based.
Data set [6] concerns Cavia porcellus. The data set is described as follows: Inhibition of ovalbumin-induced bronchoconstriction in guinea pig at 0.3 mg/kg, ip. It counts as functional. The following applies: route intraperitoneal.
Data set [7] in a line: Emetic threshold as plasma concentration in ferrets after 1.0 mg/kg oral dose. Format: ADME, organism-based, Mustela putorius furo. Set-up: dose 1 mg/kg, route oral. The following applies: ferret, read-out: Emesis_Cmax.
The subject of data set [8] is Cavia porcellus. The data set is described as follows: Inhibition of ovalbumin-induced bronchoconstriction in guinea pig at 0.03 mg/kg, ip. It counts as functional. The following applies: route intraperitoneal.
The nature of data set [9]: Emetic threshold as plasma concentration in squirrel monkeys after 10 mg/kg oral dose. It counts as ADME, organism-based. On the set-up: dose 10 mg/kg, route oral. The following applies: saimiri, read-out: Emesis_Cmax.
A short description of data set [10]: Cmax in rat at 20 mg/kg, po. Format: ADME, organism-based. On the set-up: dose 20 mg/kg, route oral. The following applies: in vivo.
A short description of data set [11]: Tmax in rat at 20 mg/kg, po. Format: ADME, organism-based. On the set-up: dose 20 mg/kg, route oral. The following applies: in vivo.
The target of data set [12] is T1, Phosphodiesterase 4. The data set is described as follows: Inhibition of LPS-induced TNFalpha production in squirrel monkey whole blood. The following applies: target entry is the homologue from another species. It counts as functional, tissue-based, Saimiri sciureus.
Data set [13] can be described thus: Oral bioavailability in rat at 20 mg/kg, po. It counts as ADME, organism-based. The following applies: in vivo.
Data set [14] deals with Ovis aries. As to the kind of experiment: Inhibition of early-phase antigen induced bronchoconstriction in Ascaris sensitive sheep at 0.5 mg/kg/day, iv. It counts as functional.
Data set [15] deals with Ovis aries. The data set is described as follows: Inhibition of late-phase antigen induced bronchoconstriction in Ascaris sensitive sheep at 0.5 mg/kg/day, iv. Format: functional.
A short description of data set [16]: Emetic threshold as plasma concentration in squirrel monkeys after 0.5 mg/kg oral dose. It counts as ADME, organism-based. On the set-up: dose 0.5 mg/kg, route oral. The following applies: saimiri, read-out: Emesis_Cmax.
For data set [17], the system named is Cavia porcellus. The data set is described as follows: Inhibition of ovalbumin-induced bronchoconstriction in guinea pig at 0.01 mg/kg, ip. It counts as functional. The following applies: route intraperitoneal.
Data set [18] is described as follows: Emetic threshold as plasma concentration in ferrets after 30 mg/kg oral dose. It counts as ADME, organism-based, Mustela putorius furo. Set-up: dose 30 mg/kg, route oral. The following applies: ferret, read-out: Emesis_Cmax.
Data set [19] relates to Cavia porcellus. As to the kind of experiment: Inhibition of ovalbumin-induced bronchoconstriction in guinea pig at 1 mg/kg, ip. Format: functional. The following applies: route intraperitoneal.
A short description of data set [20]: Emetic threshold as plasma concentration in squirrel monkeys after 3 mg/kg oral dose. It counts as ADME, organism-based. On the set-up: dose 3 mg/kg, route oral. The following applies: saimiri, read-out: Emesis_Cmax.
The subject of data set [21] is Cavia porcellus. The data set is described as follows: Inhibition of ovalbumin-induced bronchoconstriction in guinea pig at 0.1 mg/kg, ip. It counts as functional. The following applies: route intraperitoneal.
The subject of another data set is Mustela putorius furo. The data set is described as follows: Emetic threshold as plasma concentration in ferrets after 10 mg/kg oral dose. The following applies: ferret, in vivo. Set-up: dose 10 mg/kg, route oral. It counts as ADME, organism-based.

3',5'-cyclic-AMP phosphodiesterase 4B, sequence (Q07343 whole entry): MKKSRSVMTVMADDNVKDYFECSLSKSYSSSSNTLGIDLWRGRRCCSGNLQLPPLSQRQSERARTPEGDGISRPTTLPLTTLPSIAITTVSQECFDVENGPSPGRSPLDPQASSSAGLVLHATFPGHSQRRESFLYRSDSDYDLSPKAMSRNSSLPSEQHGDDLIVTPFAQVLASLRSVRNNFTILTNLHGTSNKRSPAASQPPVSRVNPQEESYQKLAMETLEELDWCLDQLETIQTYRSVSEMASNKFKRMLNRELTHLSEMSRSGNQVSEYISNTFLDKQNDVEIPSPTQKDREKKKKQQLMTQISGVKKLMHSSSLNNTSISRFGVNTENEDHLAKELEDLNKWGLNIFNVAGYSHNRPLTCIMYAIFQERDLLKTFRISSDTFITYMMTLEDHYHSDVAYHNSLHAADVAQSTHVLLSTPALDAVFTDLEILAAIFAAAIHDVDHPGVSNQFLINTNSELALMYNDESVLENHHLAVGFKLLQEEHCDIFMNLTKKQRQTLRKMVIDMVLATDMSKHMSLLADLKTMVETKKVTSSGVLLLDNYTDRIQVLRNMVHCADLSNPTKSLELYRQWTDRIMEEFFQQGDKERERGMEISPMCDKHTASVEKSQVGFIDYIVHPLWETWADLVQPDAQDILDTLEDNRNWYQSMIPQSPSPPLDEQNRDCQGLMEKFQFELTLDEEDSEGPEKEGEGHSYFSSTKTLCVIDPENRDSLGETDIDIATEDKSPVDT

Consider `CC(C)NC(=O)/C(=C/c1cccc(-c2cc(C(C)C)cc3cccnc23)c1)c1ccc(S(C)(=O)=O)cc1`, for which the IC50 is 0.3 nM in data set [1]; 0.6 nM in data set [2]; 0.3 nM in data set [3]; 2.9 nM in data set [4]; 140 nM against Phosphodiesterase 4 [5].

Consider `COc1cccc(-c2cc(Cc3ccncc3)cc3cccnc23)c1`, for which the IC50 in data set [1] stood at 1.5 nM; in data set [2], 2.5 nM; in [3] it was 2.3 nM; in data set [4] it was 3.3 nM; against Phosphodiesterase 4 [5], 8300 nM. This compound came in with an inhibition in vivo at 0.3 mg/kg in the data set with Cavia porcellus [6] of 70%. For the same compound, the Cmax in data set [7] worked out at 200 nM.

Regarding `CC(C)NC(=O)/C(=C\c1cccc(-c2cc(C(C)(C)C#N)cc3cccnc23)c1)c1ccc(S(C)(=O)=O)cc1`, the IC50 amounted to 1 nM in [1]; 0.5 nM in data set [2]; 0.4 nM in data set [3]; 11.4 nM in [4]; 210 nM against Phosphodiesterase 4 [5].

For the compound `CC(C)NC(=O)/C(=C/c1cccc(-c2cc(C(C)(C)C#N)cc3cccnc23)c1)c1ccc(S(C)(=O)=O)cc1`, in the data set on Cavia porcellus [8], the inhibition in vivo at 0.03 mg/kg came out at 75%. The IC50 stood at 0.8 nM in data set [1]; 0.7 nM in [2]; 0.3 nM in data set [3]; 6.8 nM in data set [4]; 15 nM against Phosphodiesterase 4 [12]; 70 nM against Phosphodiesterase 4 [5]. In addition, the values for the Cmax in data set [9] and in data set [10] were 1900 nM and 4100 nM, respectively. In addition, the Tmax in [11] was 6 h. This compound yielded a bioavailability in data set [13] of 80%.

As for `CC(C)c1cc(-c2cccc(/C=C(/C(=O)O)c3ccc(S(C)(=O)=O)cc3)c2)c2ncccc2c1`, the IC50 in [1] stood at 0.3 nM; in data set [2], 0.5 nM; in data set [3], 0.3 nM; in data set [4], 3.8 nM; against Phosphodiesterase 4 [5], 1600 nM.

Regarding `[O-][n+]1cccc(C[C@@H](c2ccc(OC(F)F)c(OC3CC3)c2)c2cnc(C(O)(C(F)(F)F)C(F)(F)F)s2)c1`, the IC50 was found to be 0.4 nM in data set [1]; 0.4 nM in [2]; 0.4 nM in [3]; 1 nM in data set [4]; 5 nM against Phosphodiesterase 4 [12]; 90 nM against Phosphodiesterase 4 [5]. For the same compound, the inhibition in vivo at 0.5 mg/kg/day was 68% with Ovis aries [14] and 92% with Ovis aries [15]. Moreover, the Cmax in [16] was determined as 1600 nM. In the data set with Cavia porcellus [17], 0.01 mg/kg produced 62% inhibition in vivo.

For `COc1ccc([C@H](Cc2ccncc2)c2ccccc2)cc1OC1CCCC1` [CDP840], the IC50 amounted to 2.1 nM in [1]; 1.4 nM in data set [3]; 4.5 nM in data set [4]; 600 nM on Phosphodiesterase 4 [12]; 14000 nM against Phosphodiesterase 4 [5]. The inhibition in vivo at 0.5 mg/kg/day in the data set on Ovis aries [14] came to 39%; with Ovis aries [15], 88%. In addition, the Cmax in data set [18] stood at 2500 nM; in [9], 4000 nM. The compound also yielded an inhibition in vivo at 1 mg/kg in the data set with Cavia porcellus [19] of 54%.

Consider `CC(C)c1cc(-c2cccc(C(Cc3cc[n+]([O-])cc3)c3ccc(Cl)cc3)c2)c2ncccc2c1` (stereo not given), for which the IC50 is 52 nM in [1]; 45 nM in [2]; 19 nM in data set [3]; 68 nM in data set [4]; 11000 nM at Phosphodiesterase 4 [5].

Turning to `Cc1ccc(/C(=C/c2cccc(-c3cc(C(C)C)cc4cccnc34)c2)c2ccc(S(C)(=O)=O)cc2)nc1`, the IC50 came out at 0.2 nM in data set [1]; 0.2 nM in [2]; 0.2 nM in data set [3]; 0.4 nM in data set [4]; 120 nM against Phosphodiesterase 4 [5].

Consider `CC(C)c1cc(-c2cccc(/C=C(\c3ccc(S(C)(=O)=O)cc3)c3nccs3)c2)c2ncccc2c1`, for which the IC50 in data set [1] worked out at 0.47 nM; in data set [2], 0.19 nM; in data set [3], 0.3 nM; in [4], 0.7 nM; at Phosphodiesterase 4 [5], 120 nM.

Regarding `CC(C)c1cc(-c2cccc(C(Cc3ccncc3)c3ccc(Cl)cc3)c2)c2ncccc2c1` (stereo not given), the IC50 in [1] came out at 11.8 nM; in data set [2], 38 nM; in [3] it was 6.4 nM; in [4], 22 nM; on Phosphodiesterase 4 [5] it was 31000 nM.

In the case of `CC(C)NC(=O)/C(=C/c1cccc(-c2cc(C(C)(C)S(C)(=O)=O)cc3cccnc23)c1)c1ccc(S(C)(=O)=O)cc1`, the IC50 in data set [1] was 0.9 nM; in [2], 2.3 nM; in [3], 0.5 nM; in [4], 14 nM; against Phosphodiesterase 4 [5], 930 nM. Further, the Cmax in [20] is above 2500 nM. Further, the inhibition in vivo at 0.1 mg/kg in the data set with Cavia porcellus [21] was found to be 59%.

As to `Cc1noc(/C(=C/c2cccc(-c3cc(C(C)C)cc4cccnc34)c2)c2ccccn2)n1`, the IC50 in [1] stood at 0.5 nM; in [2], 0.6 nM; in [3] it was 0.3 nM; in data set [4], 5.7 nM; against Phosphodiesterase 4 [5], 1200 nM.

`CC(C)c1cc(-c2cccc(CC(c3ccncc3)C(C)(C)O)c2)c2ncccc2c1` (stereo not given): the IC50 came out at 3.4 nM in [1]; 4.4 nM in data set [2]; 1.8 nM in data set [3]; 106 nM in data set [4]; 450 nM against Phosphodiesterase 4 [12]; 12000 nM against Phosphodiesterase 4 [5]. In addition, the Cmax in [9] was 11900 nM. For the same compound, in the data set on Cavia porcellus [19], at 1 mg/kg the inhibition in vivo was 47%. The Emesis_Cmax in the data set with Mustela putorius furo was determined as 2.9 µM.

As for `CC(C)c1cc(-c2cccc(/C=C(/c3ccc(C(C)(C)O)cc3)c3ccc(S(C)(=O)=O)cc3)c2)c2ncccc2c1`, the IC50 amounted to 0.4 nM in [1]; 0.5 nM in data set [2]; 0.3 nM in [3]; 0.5 nM in data set [4]; 610 nM against Phosphodiesterase 4 [5].

On to `Cc1noc(/C(=C/c2cccc(-c3cc(C(C)(C)S(C)(=O)=O)cc4cccnc34)c2)c2ccc(S(C)(=O)=O)cc2)n1`, for which the inhibition in vivo at 0.5 mg/kg/day in the data set on Ovis aries [14] was determined as 73%; in the data set on Ovis aries [15], 95%. Besides, the figures for the Cmax in [9] and in data set [10] were 3800 nM and 5100 nM, respectively. The Tmax in data set [11] came to 6 h. This compound also showed a bioavailability in [13] of 100%.

With `O=S(=O)(Nc1cccc(-c2cc(Cc3ccncc3)cc3cccnc23)c1)c1ccccc1`, the IC50 in data set [1] came to 5.6 nM; in data set [2] it was 2 nM; in data set [3] it was 3 nM; in data set [4], 11.9 nM; against Phosphodiesterase 4 [5], 7800 nM. The same compound displayed an inhibition in vivo at 1 mg/kg with Cavia porcellus [19] of 46%. The Emesis_Cmax in the data set with Mustela putorius furo is above 2 µM.

Consider `CC(c1cc(-c2cccc(/C=C(\c3ccc(S(C)(=O)=O)cc3)c3ncc(C(C)(C)O)s3)c2)c2ncccc2c1)S(C)(=O)=O` (stereo not given), for which the IC50 stood at 1.7 nM in [1]; 2 nM in data set [2]; 1.1 nM in [3]; 11 nM in data set [4]; 210 nM against Phosphodiesterase 4 [5].

Take `Cc1noc(/C(=C/c2cccc(-c3cc(C(C)C)cc4cccnc34)c2)c2ccc(S(C)(=O)=O)cc2)n1`: the IC50 in data set [1] is 0.16 nM; in [2], 0.2 nM; in [3], 0.07 nM; in data set [4], 1.2 nM; against Phosphodiesterase 4 [5] it was 260 nM. Also, the Cmax in data set [10] turned out to be 500 nM. The Tmax in data set [11] was determined as 0.5 h. In [13], this compound yielded a bioavailability of 11%.
